Assay results reported in patent US4877782A, “Zinc ceftiofur complexes” (The Upjohn Company, priority 1988, dated 1989).
Counter-ions that a name gives are not always drawn. Like-named read-outs stand apart in the source and are kept apart here.

What was measured:
[1] = dissolution rate in water; assay type: physicochemical; settings: for percent in aqueous solution in 20 minutes: ceftiofur hydrochloride unmicronized
[2] = tested on: Salmonella typhimurium UC6164; test: standard mouse challenge test against Salmonella typhimurium UC6164 (survival, ED50); assay type: in vivo; settings: for ED50: mice, s.c., adjusted for drug potency, 95% confidence limits
Experimental: (§1) Each test compound was suspended or dissolved in sterile Vehicle 122 (0.025% carboxymethylcellulose in water) to a starting test concentration sufficient to provide in the first set of test animals a concentration of the test drug of 2 mg./kg. Portions of each such test drug formulation were diluted seriatim 50:50 v/v with water to reduce the concentration of the test drug in the test animal to 1 mg./kg., then to 0.5 mg./kg., to 0.25 mg./kg. and finally to 0.125 mg./kg. Sets of mice were injected with the test dilutions of the test drugs subcutaneously once or three times after injecting challenge doses lethal doses of one of the above-named bacterial organisms. The sets of animals were observed over six days to determine the number of surviving mice. The mortality ratios were noted and the ED50 values were calculated for each test drug by standard methods.

bulk density = assay type: physicochemical
[3] = tested on: Pasteurella multocida UC9581; test: standard mouse challenge test against Pasteurella multocida UC9581 (survival, ED50); assay type: in vivo; settings: for ED50: mice, s.c., adjusted for drug potency, 95% confidence limits
Experimental: as §1

[4] = dispersibility in water, organic solvents and vegetable oils; assay type: physicochemical; settings: in words
[5] = 20 minutes, comparable equilibration conditions
[6] = zinc ceftiofur hydrochloride vs. non-complexed hydrochloride salt
[7] = mouse challenge, in words, from ED50 numbers of Table I

| Molecule | percent in aqueous solution in 20 minutes [1, 5] [%] | ED50 ([2]; Salmonella enterica, sc, 144 h, UC6164, 579 LD50's, 1X treatment, read-out: ED50) [mg/kg] | ED50 ([2]; Salmonella enterica, sc, 144 h, UC6164, 1000 LD50's, 1X treatment, read-out: ED50) [mg/kg] | ED50 ([2]; Salmonella enterica, sc, 144 h, UC6164, 1000 LD50's, 3X treatments, read-out: ED50) [mg/kg] | bulk density (bulk density; [6]) | ED50 ([3]; Pasteurella multocida, sc, 144 h, UC9581, 27 LD50's, 3X treatments, read-out: ED50) [mg/kg] | distribution in pharmaceutical aqueous vehicle formulations [4] | solubility in water after 20 minutes ([1]; 20 minutes, comparable equilibration conditions, zinc complex unmicronized) [%] | dissolution rate curves (percent dissolved over time) ([1]; in words, compared with sodium ceftiofur and ceftiofur hydrochloride) | ED50 ([2]; UC6164, 1000 LD50's, 1X treatment, 8640 min, listed as C--Na) [mg/kg/day] | bulk density (bulk density; zinc ceftiofur sodium complex from water vs. ceftiofur sodium salt) [g/mL] | rate of dissolution ([1]; in words, compared to ceftiofur hydrochloride) | ED50 ([2]; UC6164, 579 LD50's, 1X treatment, 8640 min) [mg/kg/day] | ED50 ([2]; UC6164, 1000 LD50's, 1X treatment, 8640 min) [mg/kg/day] | ED50 ([2]; UC6164, 1000 LD50's, 3X treatments, 8640 min) [mg/kg/day] | antibiotic protection [2, 7] | ED50 ([3]; UC9581, 27 LD50's, 3X treatments, 8640 min) [mg/kg/day] | ED50 ([3]; UC9581, 303 LD50's, 1X treatment, 8640 min) [mg/kg/day] | antibiotic protection [3, 7] | dispersibility in water and in common pharmaceutical organic solvents and vegetable oils ([4]; granular powders) |
| --- | --- | --- | --- | --- | --- | --- | --- | --- | --- | --- | --- | --- | --- | --- | --- | --- | --- | --- | --- | --- |
| CO/N=C(\C(=O)N[C@@H]1C(=O)N2C(C(=O)O)=C(CSC(=O)c3ccco3)CS[C@H]12)c1csc(N)n1 [ceftiofur hydrochloride] | 74 | 1.7 | 1.3 | 2.3 | 0.15 g/mL | 0.3 | less well adapted for distribution in pharmaceutical aqueous vehicle formulations | – | – | – | – | – | – | – | – | – | – | – | – | – |
| CO/N=C(\C(=O)N[C@@H]1C(=O)N2C(C(=O)O)=C(CSC(=O)c3ccco3)CS[C@H]12)c1csc(N)n1 [ceftiofur sodium] | – | – | – | – | – | – | – | 100 | dissolves quite quickly in water | 1.1 | 0.11 | – | – | – | – | – | – | – | – | – |
| zinc ceftiofur hydrochloride complex [Compound II] | 48 | – | – | – | about 0.24 g./ml. | – | – | – | – | – | – | much slower compared to ceftiofur hydrochloride | 1.0 | 3.3 | 2.1 | potent antibiotic protection | 0.4 | 0.3 | potent antibiotic protection | readily dispersible in water |
